Results: US8445501B2, “Substituted 7-carboxamido-pyrrolo[3,2-d]pyrimidines” (Takeda GmbH, priority 2008, dated 2013)

Biological target: T1, human PDE5 (Homo sapiens, UniProt O76074)
T1 construct: from tissue; host or cells: platelets from fresh blood of human donors (lysate, 10,000 g supernatant)
Test: Inhibition of the type 5 phosphodiesterase (PDE5) activity, modified SPA test with platelet lysate
Type: biochemical
Conditions: PDE5 from human platelet lysate, 0.5 μM cGMP
How it was run: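 SPA-based cGMP hydrolysis, [3H]cGMP tracer in 0.5 μM cGMP, by sonicated human platelet lysate; motapizone (1 μM) and a PDE2 inhibitor (10 nM) block other PDEs. Reaction 15 min at 37 °C after 5 min preincubation, quenched with beads containing IBMX. IC50 from concentration-effect curves.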

In the case of `COc1ccc(-c2ncnc3c(C(=O)N[C@H]4CC[C@@H](NC(C)=O)CC4)c[nH]c23)c(OCC2CC2)c1` [Example 55, cis-4-(2-Cyclopropylmethoxy-4-methoxy-phenyl)-5H-pyrrolo[3,2-d]pyrimidine-7-carboxylic acid (4-acetylamino-cyclohexyl)-amide], the IC50 is reported as 372 pM.
`COc1ccc(-c2ncnc3c(C(=O)N[C@H]4CC[C@@H](NC(=O)C5CC5)CC4)c[nH]c23)c(OCC2CC2)c1` [Example 56, cis-4-(2-Cyclopropylmethoxy-4-methoxy-phenyl)-5H-pyrrolo[3,2-d]pyrimidine-7-carboxylic acid [4-(cyclopropanecarbonyl-amino)cyclohexyl]-amide] showed an IC50 of 282 pM.
With `COCC(=O)N[C@H]1CC[C@@H](NC(=O)c2c[nH]c3c(-c4ccc(OC)cc4OCC4CC4)ncnc23)CC1` [Example 57, cis-4-(2-Cyclopropylmethoxy-4-methoxy-phenyl)-5H-pyrrolo[3,2-d]pyrimidine-7-carboxylic acid [4-(2-methoxy-acetylamino)-cyclohexyl]-amide] the IC50 was 468 pM.
With `CCOC(=O)N[C@H]1CC[C@@H](NC(=O)c2c[nH]c3c(-c4ccc(OC)cc4OCC4CC4)ncnc23)CC1` [Example 58, cis-(4-{[4-(2-Cyclopropylmethoxy-4-methoxy-phenyl)-5H-pyrrolo[3,2-d]pyrimidine-7-carbonyl]-amino}-cyclohexyl)-carbamic acid ethyl ester] the IC50 was 339 pM.
Work on `COc1ccc(-c2ncnc3c(C(=O)NC4CCN(C(C)=O)CC4)c[nH]c23)c(OCC2CC2)c1` [Example 59, 4-(2-Cyclopropylmethoxy-4-methoxy-phenyl)-5H-pyrrolo[3,2-d]pyrimidine-7-carboxylic acid (1-acetyl-piperidin-4-yl)-amide] yielded an IC50 of 741 pM.
Molecule `COc1ccc(-c2ncnc3c(C(=O)NC4CCN(C(=O)C5CC5)CC4)c[nH]c23)c(OCC2CC2)c1` [Example 60, 4-(2-Cyclopropylmethoxy-4-methoxy-phenyl)-5H-pyrrolo[3,2-d]pyrimidine-7-carboxylic acid [1-(1-cyclopropyl-methanoyl)-piperidin-4-yl]-amide] has an IC50 of 263 pM.
With `COCC(=O)N1CCC(NC(=O)c2c[nH]c3c(-c4ccc(OC)cc4OCC4CC4)ncnc23)CC1` [Example 61, 4-(2-Cyclopropylmethoxy-4-methoxy-phenyl)-5H-pyrrolo[3,2-d]pyrimidine-7-carboxylic acid [1-(2-methoxy-ethanoyl)-piperidin-4-yl]amide] the IC50 was 525 pM.
Work on `CCOC(=O)N1CCC(NC(=O)c2c[nH]c3c(-c4ccc(OC)cc4OCC4CC4)ncnc23)CC1` [Example 62, 4-({1-[4-(2-Cyclopropylmethoxy-4-methoxy-phenyl)-5H-pyrrolo[3,2-d]pyrimidin-7-yl]-methanoyl}-amino)-piperidine-1-carboxylic acid ethyl ester] yielded an IC50 of 309 pM.
`COc1ccc(OCC2CC2)c(-c2ncnc3c(C(=O)N[C@H]4CC[C@H](NC(C)=O)CC4)c[nH]c23)c1` [Example 63, trans-4-(2-Cyclopropylmethoxy-5-methoxy-phenyl)-5H-pyrrolo[3,2-d]pyrimidine-7-carboxylic acid (4-acetylamino-cyclohexyl)-amide] gave an IC50 of 912 pM.
`COc1ccc(OCC2CC2)c(-c2ncnc3c(C(=O)N[C@H]4CC[C@H](NC(=O)C5CC5)CC4)c[nH]c23)c1` [Example 64, trans-4-(2-Cyclopropylmethoxy-5-methoxy-phenyl)-5H-pyrrolo[3,2-d]pyrimidine-7-carboxylic acid [4-(cyclopropanecarbonyl-amino)cyclohexyl]-amide] gave an IC50 of 603 pM.
`COCC(=O)N[C@H]1CC[C@H](NC(=O)c2c[nH]c3c(-c4cc(OC)ccc4OCC4CC4)ncnc23)CC1` [Example 65, trans-4-(2-Cyclopropylmethoxy-5-methoxy-phenyl)-5H-pyrrolo[3,2-d]pyrimidine-7-carboxylic acid [4-(2-methoxy-acetylamino)-cyclohexyl]-amide] gave an IC50 of 1150 pM.
In the case of `CCOC(=O)N[C@H]1CC[C@H](NC(=O)c2c[nH]c3c(-c4cc(OC)ccc4OCC4CC4)ncnc23)CC1` [Example 66, trans-(4-{[4-(2-Cyclopropylmethoxy-5-methoxy-phenyl)-5H-pyrrolo[3,2-d]pyrimidine-7-carbonyl]-amino}-cyclohexyl)-carbamic acid ethyl ester], the IC50 is reported as 631 pM.
In the case of `COc1ccc(OCC2CC2)c(-c2ncnc3c(C(=O)N[C@H]4CC[C@@H](NC(C)=O)CC4)c[nH]c23)c1` [Example 67, cis-4-(2-Cyclopropylmethoxy-5-methoxy-phenyl)-5H-pyrrolo[3,2-d]pyrimidine-7-carboxylic acid (4-acetylamino-cyclohexyl)-amide], the IC50 is reported as 1380 pM.
`COc1ccc(OCC2CC2)c(-c2ncnc3c(C(=O)N[C@H]4CC[C@@H](NC(=O)C5CC5)CC4)c[nH]c23)c1` [Example 68, cis-4-(2-Cyclopropylmethoxy-5-methoxy-phenyl)-5H-pyrrolo[3,2-d]pyrimidine-7-carboxylic acid [4-(cyclopropanecarbonyl-amino)cyclohexyl]-amide] gave an IC50 of 912 pM.
Molecule `COCC(=O)N[C@H]1CC[C@@H](NC(=O)c2c[nH]c3c(-c4cc(OC)ccc4OCC4CC4)ncnc23)CC1` [Example 69, cis-4-(2-Cyclopropylmethoxy-5-methoxy-phenyl)-5H-pyrrolo[3,2-d]pyrimidine-7-carboxylic acid [4-(2-methoxy-acetylamino)-cyclohexyl]-amide] has an IC50 of 1780 pM.
`CCOC(=O)N[C@H]1CC[C@@H](NC(=O)c2c[nH]c3c(-c4cc(OC)ccc4OCC4CC4)ncnc23)CC1` [Example 70, cis-(4-{[4-(2-Cyclopropylmethoxy-5-methoxy-phenyl)-5H-pyrrolo[3,2-d]pyrimidine-7-carbonyl]-amino}-cyclohexyl)-carbamic acid ethyl ester] gave an IC50 of 1070 pM.
For `COc1ccc(OCC2CC2)c(-c2ncnc3c(C(=O)NC4CCN(C(C)=O)CC4)c[nH]c23)c1` [Example 71, 4-(2-Cyclopropylmethoxy-5-methoxy-phenyl)-5H-pyrrolo[3,2-d]pyrimidine-7-carboxylic acid (1-acetyl-piperidin-4-yl)-amide], the IC50 was 1350 pM.
For `COc1ccc(OCC2CC2)c(-c2ncnc3c(C(=O)NC4CCN(C(=O)C5CC5)CC4)c[nH]c23)c1` [Example 72, 4-(2-Cyclopropylmethoxy-5-methoxy-phenyl)-5H-pyrrolo[3,2-d]pyrimidine-7-carboxylic acid (1-cyclopropanecarbonyl-piperidin-4-yl)-amide], the IC50 was 437 pM.
In the case of `COCC(=O)N1CCC(NC(=O)c2c[nH]c3c(-c4cc(OC)ccc4OCC4CC4)ncnc23)CC1` [Example 73, 4-(2-Cyclopropylmethoxy-5-methoxy-phenyl)-5H-pyrrolo[3,2-d]pyrimidine-7-carboxylic acid [1-(2-methoxy-acetyl)piperidin-4-yl]-amide], the IC50 is reported as 1860 pM.
`CCOC(=O)N1CCC(NC(=O)c2c[nH]c3c(-c4cc(OC)ccc4OCC4CC4)ncnc23)CC1` [Example 74, 4-{[4-(2-Cyclopropylmethoxy-5-methoxy-phenyl)-5H-pyrrolo[3,2-d]pyrimidine-7-carbonyl]-amino}-piperidine-1-carboxylic acid ethyl ester] gave an IC50 of 550 pM.
Work on `CC(=O)N[C@H]1CC[C@@H](NC(=O)c2c[nH]c3c(-c4ccc(F)cc4OCC4CC4)ncnc23)CC1` [Example 75, cis-4-(2-Cyclopropylmethoxy-4-fluoro-phenyl)-5H-pyrrolo[3,2-d]pyrimidine-7-carboxylic acid (4-acetylamino-cyclohexyl)-amide] yielded an IC50 of 1580 pM.
